Test results published in patent US5627171A, “Sphingosine-1-phosphate/trimethylsphingosine composition” (Oncomembrane, Inc., priority 1994, dated 1997).
Where two headings read alike, the source gives them in different places.

Experiments:
B16BL6 melanoma cells = test system: B16BL6 melanoma cells; parameters: key: +++: + graded effectiveness; ++: + graded effectiveness; + graded effectiveness; - not effective; conditions: cited from earlier work
platelet activation = test system: platelet activation; parameters: key: +++: + graded effectiveness; ++: + graded effectiveness; + graded effectiveness; - not effective; conditions: cited from earlier work
protein kinase C = test system: protein kinase C; parameters: key: +++: + graded effectiveness; ++: + graded effectiveness; + graded effectiveness; - not effective; conditions: cited from earlier work
BL6 cell line = test: Spontaneous metastasis model: subcutaneous BL6 cells, lung colonization; type: in vivo; conditions: mice, BL6 cells s.c.; liposomes i.v. on days 5, 10, 15, 20, 25, 30; primary tumor excised day 21; assessed day 35
Procedure: As an example, mice were injected subcutaneously with the metastatic and invasive BL6 cell line (Hart et al., Amer. J. Path., 97, 587, 1979; Poote et al., Canc. Res., 42, 2770, 1982) (1×10^5 cells in 0.05 ml of Dulbecco-modified Eagle's medium). A single intravenous injection of the 10:1 liposomal TMS/Sph-1-P composition described hereinabove was administered on days 5, 10, 15, 20, 25 and 30. The primary tumor was excised on day 21 and lung colonization was assessed on day 35. […] Controls comprised liposomes containing TMS alone, liposomes containing Sph-1-P alone, liposomes containing medium or medium alone with no liposomes.
Then the instant composition encapsulated in liposomes is administered to the hosts, see FIG. 9A.
(§1) In either model, the number of lung tumor colonies is ascertained macroscopically and microscopically following a course of repeated liposome administration.

tumor cells = test: Experimental metastasis model: intravenous injection of tumor cells, lung tumor colonies; type: in vivo; conditions: tumor cells i.v.; number of lung tumor colonies
Source text: as §1

[1] = preincubation with free derivative

Structure (SMILES): CCCCCCCCCCCCCC#C[C@@H](O)[C@H](CO)[N+](C)(C)C [4-alkyn-TMS]
- Inhibition of metastasis (B16BL6 melanoma cells; no footnote on formulation): +
- Inhibition of PA (platelet activation): ++
- PKC inhibition (protein kinase C): +++

Structure (SMILES): CCCCCCCCCCCCCC(F)/C=C/[C@H](CO)[N+](C)(C)C (some centres unmarked) [5F-TMS]
- Inhibition of metastasis (B16BL6 melanoma cells; no footnote on formulation): +++
- Inhibition of PA (platelet activation): +++
- PKC inhibition (protein kinase C): +++

Structure (SMILES): C[N+](C)(C)[C@@H](CO)[C@H](O)/C=C/CCCCCCCCCCCCC(=O)O [Carboxy TMS]
- Inhibition of metastasis (B16BL6 melanoma cells; [1]): -
- Inhibition of PA (platelet activation): -
- PKC inhibition (protein kinase C): -

Structure (SMILES): CCCCCCCCCCCCCCC[C@@H](O)[C@H](CO)[N+](C)(C)C [DHTMS]
- Inhibition of metastasis (B16BL6 melanoma cells; liposomal formulation was used): +
- Inhibition of PA (platelet activation): ++
- PKC inhibition (protein kinase C): +++

Structure (SMILES): COC(=O)CCCCCCCCCCCC/C=C/[C@@H](O)[C@H](CO)[N+](C)(C)C [Methylcarboxy TMS]
- Inhibition of metastasis (B16BL6 melanoma cells; [1]): -
- Inhibition of PA (platelet activation): -
- PKC inhibition (protein kinase C): -

Structure (SMILES): C[N+](C)(C)[C@@H](CO)[C@H](O)c1ccccc1 [NTPS]
- Inhibition of metastasis (B16BL6 melanoma cells; [1]): -
- Inhibition of PA (platelet activation): -
- PKC inhibition (protein kinase C): -

Structure (SMILES): CCCCCCCCCCCCC/C=C/[C@@H](O)[C@@H](N)COP(=O)(O)O [Sph-1-P, sphingosine-1-phosphate]
- Lung colony number (lung colonization) (BL6 cell line): no different in effect from medium alone or liposomes containing medium only

Structure (SMILES): CCCCCCCCCCCCC/C=C/[C@@H](O)[C@H](CO)[N+](C)(C)C [TMS, N,N,N-trimethylsphingosine]
- Effect in the experimental metastasis model (tumor cells): strong effect
- Inhibition of metastasis (B16BL6 melanoma cells; free derivative and liposomal formulation were used): +++
- Inhibition of PA (platelet activation): +++
- PKC inhibition (protein kinase C): +++
